Source: patent US5567692A, “9-[(substituted glycyl) amido)]-6-demethyl-6-deoxytetracyclines” (priority 1995, dated 1996)
Counter-ions that a name gives are not always drawn.

Legend:
Enterococcus faecium = experiment: MIC range, recent clinical and veterinary isolates; format: cell-based; conditions: 18 h, read-out: MIC Range
Bacteroides fragilis = experiment: MIC range, recent clinical and veterinary isolates; format: cell-based; conditions: 18 h, [11] isolates
[1] = system: S. aureus UBMS 88-7 Tet K; experiment: microbe, parasite or virus in culture; format: cell-based; conditions: dihydrochloride
S. aureus IVES 2943 = experiment: MIC, agar dilution; format: cell-based; conditions: S. aureus IVES 2943; dihydrochloride
Klebsiella pneumoniae = experiment: MIC range, recent clinical and veterinary isolates; format: cell-based; conditions: 18 h, [10] isolates
[2] = system: Staphylococcus aureus strain Smith (tetracycline sensitive); experiment: Acute lethal infection in mice, S. aureus Smith; format: in vivo; conditions: mice, S. aureus Smith (Sens), 7 day survival, dihydrochloride, 10080 min
Salmonella spp. = experiment: MIC range, recent clinical and veterinary isolates; format: cell-based; conditions: 18 h, [11] isolates
[3] = system: S. aureus UBMS 88-5 Tet M; experiment: microbe, parasite or virus in culture; format: cell-based; conditions: Staphylococcus aureus, UBMS885TETM, 18 h
S. marcescens FPOR 8733 = experiment: MIC, agar dilution; format: cell-based; conditions: dihydrochloride
S. aureus IVES 1983 = experiment: MIC, agar dilution; format: cell-based; conditions: S. aureus IVES 1983; dihydrochloride
[4] = system: Staphylococcus aureus, (methicillin-susceptible); experiment: MIC range, recent clinical and veterinary isolates; format: cell-based; conditions: Staphylococcus aureus, 18 h, read-out: MIC Range
E. coli J3272 Tet C = experiment: microbe, parasite or virus in culture; format: cell-based; conditions: dihydrochloride
Clostridium spp. = experiment: MIC range, recent clinical and veterinary isolates; format: cell-based; conditions: 18 h, [9] isolates
[5] = system: Escherichia coli UBMS 90-4 (Tet M); experiment: Acute lethal infection in mice, E. coli UBMS 90-4; conditions: in Mus musculus, iv, 168 h
Enterococcus faecalis = experiment: MIC range, recent clinical and veterinary isolates; format: cell-based; conditions: 18 h, read-out: MIC Range
Streptococcus pyogenes = experiment: MIC range, recent clinical and veterinary isolates; format: cell-based; conditions: 18 h, read-out: MIC Range
E. coli J2175 = experiment: MIC, agar dilution; format: cell-based
the ribosome = experiment: Reversibility of binding: bacterial growth after washing of the organism; format: cell-based; conditions: bacterial growth resumes when the compound is removed by washing
Description: Therefore, the ability of 9-[(N,N-dimethylglycyl)amido]-6-demethyl-6-deoxytetracycline to inhibit bacterial growth appears to be a direct consequence of its ability to inhibit protein synthesis at the ribosome level.

Pseudomonas aeruginosa = experiment: MIC range, recent clinical and veterinary isolates; format: cell-based; conditions: 18 h, [10] isolates, read-out: MIC Range
Enterobacter aerogenes = experiment: MIC range, recent clinical and veterinary isolates; format: cell-based; conditions: Klebsiella aerogenes, 18 h; Enterobacter aerogenes, [10] isolates; read-out: MIC Range
E. coli BAJ9003 IMP MUT = experiment: microbe, parasite or virus in culture; format: cell-based; conditions: E. coli BAJ9003 IMP MUT
E. coli UBMS 88-1 Tet B = experiment: microbe, parasite or virus in culture; format: cell-based; conditions: E. coli UBMS 88-1 Tet B
S. aureus NEMC 8769 = experiment: MIC, agar dilution; format: cell-based
[6] = system: S. aureus UBMS 90-1 Tet M; experiment: microbe, parasite or virus in culture; format: cell-based; conditions: S. aureus UBMS 90-1 Tet M; dihydrochloride
[7] = system: S. aureus UBMS 90-2 Tet M; experiment: microbe, parasite or virus in culture; format: cell-based; conditions: S. aureus UBMS 90-2 Tet M; dihydrochloride
[8] = system: Bordetella bronchiseptica (Veterinary); experiment: MIC range, recent clinical and veterinary isolates; format: cell-based; conditions: 18 h; Bordetella bronchiseptica (Veterinary), [10] isolates; read-out: MIC Range
E. coli PRP1 Tet A = experiment: microbe, parasite or virus in culture; format: cell-based; conditions: dihydrochloride
[9] = system: Bacteroides fragilis group; experiment: MIC range, recent clinical and veterinary isolates; format: cell-based; conditions: Bacteroides fragilis, 18 h, read-out: MIC Range
Xanthamonas maltophilia = experiment: MIC range, recent clinical and veterinary isolates; format: cell-based; conditions: 18 h, read-out: MIC Range
[10] = system: Escherichia coli (Veterinary); experiment: MIC range, recent clinical and veterinary isolates; format: cell-based; conditions: 18 h, [15] isolates
S. aureus ATCC 29213 = experiment: MIC, agar dilution; format: cell-based; conditions: S. aureus ATCC 29213; dihydrochloride
Anaerobic Gram(+)Cocci = experiment: MIC range, recent clinical and veterinary isolates; format: cell-based; conditions: 18 h; Anaerobic Gram(+)Cocci, [15] isolates; read-out: MIC Range
[11] = system: Pasturella multocida (Veterinary); experiment: MIC range, recent clinical and veterinary isolates; format: cell-based; conditions: 18 h, [17] isolates
Enterobacter cloacae = experiment: MIC range, recent clinical and veterinary isolates; format: cell-based; conditions: 18 h, [10] isolates, read-out: MIC Range
Moraxella catarrhalis = experiment: MIC range, recent clinical and veterinary isolates; format: cell-based; conditions: 18 h, [18] isolates, read-out: MIC Range
Listeria monocytogenes = experiment: MIC range, recent clinical and veterinary isolates; format: cell-based; conditions: 18 h, [8] isolates
S. aureus SMITH (MP) = experiment: MIC, agar dilution; format: cell-based; conditions: Staphylococcus aureus, 18 h; S. aureus SMITH (MP); read-out: MIC
S. aureus UBMS 88-4 = experiment: MIC, agar dilution; format: cell-based; conditions: Staphylococcus aureus, UBMS884, 18 h
Serratia marcescens = experiment: MIC range, recent clinical and veterinary isolates; format: cell-based; conditions: 18 h, [10] isolates, read-out: MIC Range
[12] = system: E. coli MC 4100 TNIOC Tet B; experiment: microbe, parasite or virus in culture; format: cell-based; conditions: E. coli MC 4100 TNIOC Tet B
Neisseria gonorrhoeae = experiment: MIC range, recent clinical and veterinary isolates; format: cell-based; conditions: 18 h, [14] isolates

With CN(C)CC(=O)Nc1ccc2c(c1O)C(=O)C1=C(O)[C@]3(O)C(=O)C(C(N)=O)=C(O)[C@@H](N(C)C)C3CC1C2 (stereo partly drawn) [CC, [4S-(4alpha,12aalpha)]-4-(Dimethylamino)-9-[[(dimethylamino)acetyl]amino]-1,4,4a,5,5a,6,11,12a-octahydro-3,10,12,12a-tetrahydroxy-1,11-dioxo-2-naphthacenecarboxamide dihydrochloride] the MIC (Enterococcus faecium) was 0.06 to 0.5 µg/mL, the MIC (Bacteroides fragilis) was 0.25 to 1 µg/mL and the MIC [1] was 0.5 µg/mL. It also gave an MIC (S. aureus IVES 2943) of 0.5 µg/mL, an MIC (Klebsiella pneumoniae) of 0.25 to 4 µg/mL and an ED50 ([2]; Intraveneous) of 0.46 mg/kg. For the same compound, the ED50 ([2]; Oral) was greater than 8 mg/kg, the MIC (Salmonella spp.) was 0.25 to 0.5 µg/mL and the MIC [3] was 0.03 µg/mL. The MIC (S. marcescens FPOR 8733) was 2 µg/mL, the MIC (S. aureus IVES 1983) was 0.5 µg/mL and the MIC [4] was 0.06 to 0.25 µg/mL. For the same compound, the MIC (E. coli J3272 Tet C) was 0.25 µg/mL, the MIC (Clostridium spp.) was 0.03 to 0.12 µg/mL and the ED50 [5] was 1.6 mg/kg. The MIC (Enterococcus faecalis) was 0.03 to 0.25 µg/mL, the MIC (Streptococcus pyogenes) was 0.06 to 0.12 µg/mL and the MIC (E. coli J2175) was 0.25 µg/mL. The “binding to its target (the ribosome), reversibility” value (the ribosome) was “binds reversibly”, the MIC (Pseudomonas aeruginosa) was 2 to 16 µg/mL and the MIC (Enterobacter aerogenes) was 0.25 to 1 µg/mL. For the same compound, the MIC (E. coli BAJ9003 IMP MUT) was “no growth”, the MIC (E. coli UBMS 88-1 Tet B) was 0.25 µg/mL and the MIC (S. aureus NEMC 8769) was less than 0.015 µg/mL. For the same compound, the MIC [6] was 0.06 µg/mL, the MIC [7] was 0.06 µg/mL and the MIC [8] was 0.06 to 0.12 µg/mL. For the same compound, the MIC (E. coli PRP1 Tet A) was 0.5 µg/mL, the MIC [9] was 0.12 to 2 µg/mL and the MIC (Xanthamonas maltophilia) was 1 to 8 µg/mL. The MIC [10] was 0.25 to 4 µg/mL, the MIC (S. aureus ATCC 29213) was less than 0.015 µg/mL and the MIC (Anaerobic Gram(+)Cocci) was 0.015 to 0.12 µg/mL. For the same compound, the MIC [11] was 0.03 to 0.25 µg/mL, the MIC (Enterobacter cloacae) was 0.5 to 1 µg/mL and the MIC (Moraxella catarrhalis) was 0.06 to 0.12 µg/mL. It also gave an MIC (Listeria monocytogenes) of 0.06 to 0.12 µg/mL, an MIC (S. aureus SMITH (MP)) of 0.03 µg/mL and an MIC (S. aureus UBMS 88-4) of 0.03 µg/mL. The MIC (Serratia marcescens) was 2 to 8 µg/mL, the MIC [12] was 0.25 µg/mL and the MIC (Neisseria gonorrhoeae) was 0.5 to 1 µg/mL.
